Test system: batrachotoxin (BTX) binding site of the sodium channel
Assay: Affinity for the batrachotoxin (BTX) binding site of the sodium channel, [3H]-batrachotoxinin A20 α-benzoate, rat cerebrocortex synaptosomes
Details: test concentration not given

Q: With `O=C(c1noc2c1CN(S(=O)(=O)c1ccc(F)cc1)CC2)N1CC=C(c2ccc(F)cc2)CC1` [Example 42, [5-(4-fluoro-benzenesulfonyl)-4,5,6,7-tetrahydro-isoxazolo[4,5-c]pyridin-3-yl]-[4-(4-fluorophenyl)-3,6-dihydro-2H-pyridin-1-yl]-methanone] as the compound, how does the “BTX inhibition (rat) % inhibition” value read?
A: 54%

Q: `CCOC(=O)c1cccc(NC(=O)N2CCc3onc(C(=O)NCc4ccc(C)o4)c3C2)c1` [Example 23, 3-({3-[(5-methyl-furan-2-ylmethyl)-carbamoyl]-6,7-dihydro-4H-isoxazolo[4 5-c]pyridine-5-carbonyl}-amino)-benzoic acid ethyl ester] was tested. Which “BTX inhibition (rat) % inhibition” value did it give?
A: 46%

Q: `Cc1ccc(NC(=O)N2CCc3onc(C(=O)NCc4ccc(F)cc4)c3C2)cc1[N+](=O)[O-]` [Example 14, 6,7-dihydro-4H-isoxazolo[4,5-c]pyridine-3,5-dicarboxylic acid 3-(4-fluorobenzyl amide) 5-[(4-methyl-3-nitro-phenyl) amide]] was tested. Which “BTX inhibition (rat) % inhibition” value did it give?
A: 70%

Q: How did the “BTX inhibition (rat) % inhibition” value turn out when `Cc1ccc(S(=O)(=O)N2CCc3onc(C(=O)NC4CCN(Cc5c(Cl)cccc5Cl)C4)c3C2)cc1` (centres unmarked) [Example 91, 5-(toluene-4-sulfonyl)-4,5,6,7-tetrahydro-isoxazolo[4,5-c]pyridine-3-carboxylic acid [1-(2,6-dichloro-benzyl)-pyrrolidin-3-yl] amide] was run?
A: 61%

Q: Which “BTX inhibition (rat) % inhibition” value does the source give for `O=C(NCCN1CCCC1)c1noc2c1CN(C(=O)COc1cccc(Cl)c1)CC2` [Example 155, 5-(2-(3-chlorophenoxy)acetyl)-N-(2-(pyrrolidin-1-yl)ethyl)-4,5,6,7-tetrahydroisoxazolo[4,5-c]pyridine-3-carboxamide] here?
A: 64%

Q: Which “BTX inhibition (rat) % inhibition” value does the source give for `Cc1ccc(S(=O)(=O)N2CCc3onc(C(=O)N4CCN(CCC5CCCCC5)CC4)c3C2)cc1` [Example 82, [4-(2-cyclohexyl-ethyl)-piperazin-1-yl]-[5-(toluene-4-sulfonyl)-4,5,6,7-tetrahydro-isoxazolo[4,5-c]pyridin-3-yl]-methanone] here?
A: 69%

Q: How did the “BTX inhibition (rat) % inhibition” value turn out when `O=C(NCc1ccccc1)c1noc2c1CN(C(=O)NCCc1ccccc1)CC2` [Example 10, 6,7-dihydro-4H-isoxazolo[4,5-c]pyridine-3,5-dicarboxylic acid 3-benzyl amide 5-(phenethyl amide)] was run?
A: 64%

Q: How did the “BTX inhibition (rat) % inhibition” value turn out when `COc1ccc(NC(=O)N2CCc3onc(C(=O)NCc4ccc(S(N)(=O)=O)cc4)c3C2)cc1` [Example 154, N^5-(4-methoxyphenyl)-N^3-(4-sulfamoylbenzyl)-6,7-dihydroisoxazolo[4,5-c]pyridine-3,5(4H)-dicarboxamide] was run?
A: 4%

Q: Which “BTX inhibition (rat) % inhibition” value does the source give for `CC(C)CNC(=O)c1noc2c1CN(C(=O)C(NC(=O)OCc1ccccc1)c1ccccc1)CC2` (centres unmarked) [Example 126, [2-(3-isobutylcarbamoyl-6,7-dihydro-4H-isoxazolo[4,5-c]pyridin-5-yl)-2-oxo-1-phenyl-ethyl]-carbamic acid benzyl ester] here?
A: 88%

Q: `Cl.O=C(c1noc2c1CN(S(=O)(=O)c1cccc3ccccc13)CC2)N1CCC(CCN2CCCC2)CC1` [Example 149, (5-(Naphthalene-1-ylsulfonyl)-4,5,6,7-tetrahydroisoxazolo[4,5-c]pyridin-3-yl)(4-(2-(pyrrolidin-1-yl)ethyl)piperidin-1-yl)methanone hydrochloride] was tested. Which “BTX inhibition (rat) % inhibition” value did it give?
A: 86%

Q: How did the “BTX inhibition (rat) % inhibition” value turn out when `CC(NC(=S)N1CCc2onc(C(=O)NCCc3ccccc3)c2C1)c1ccccc1` (centres unmarked) [Example 132, 5-(1-phenyl-ethylthiocarbamoyl)-4,5,6,7-tetrahydro-isoxazolo[4,5-c]pyridine-3-carboxylic acid phenethyl amide] was run?
A: 90%

Q: For `CC(NC(=O)N1CCc2onc(C(=O)NCc3ccccc3)c2C1)c1ccccc1` (centres unmarked) [Example 150, N^3-benzyl-N^5-(1-phenylethyl)-6,7-dihydroisoxazolo[4,5-c]pyridine-3,5(4H)-dicarboxamide], which “BTX inhibition (rat) % inhibition” value is on record?
A: 49%

Q: Which “BTX inhibition (rat) % inhibition” value does the source give for `COc1ccc(CNC(=S)N2CCc3onc(C(=O)NC4CCCC4)c3C2)cc1` [Example 127, 5-(4-methoxy-benzylthiocarbamoyl)-4,5,6,7-tetrahydro-isoxazolo[4,5-c]pyridine-3-carboxylic acid cyclopentyl amide] here?
A: 74%

Q: With `O=C(c1noc2c1CN(S(=O)(=O)c1cc(Cl)ccc1Cl)CC2)N(CCc1ccccc1)Cc1ccccc1` [Example 59, 5-(2,5-dichloro-benzenesulfonyl)-4,5,6,7-tetrahydro-isoxazolo[4,5-c]pyridine-3-carboxylic acid benzyl-phenethyl amide] as the compound, how does the “BTX inhibition (rat) % inhibition” value read?
A: 58%

Q: `O=C(O)CC1(CC(=O)N2CCc3onc(C(=O)Nc4ccccc4)c3C2)CCCC1` [Example 28, {1-[2-oxo-2-(3-phenylcarbamoyl-6,7-dihydro-4H-isoxazolo[4,5-c]pyridin-5-yl)-ethyl]-cyclopentyl}acetic acid] was tested. Which “BTX inhibition (rat) % inhibition” value did it give?
A: 60%

Q: With `Cc1cc(C(=O)N2CCc3onc(C(=O)NCCN4CCOCC4)c3C2)ccc1Br` [Example 90, 5-(4-bromo-3-methyl-benzoyl)-4,5,6,7-tetrahydro-isoxazolo[4,5-c]pyridine-3-carboxylic acid (2-morpholin-4-yl-ethyl) amide] as the compound, how does the “BTX inhibition (rat) % inhibition” value read?
A: 42%

Q: With `Cc1ccc(NC(=O)N2CCc3onc(C(=O)NCCc4ccccc4)c3C2)cc1[N+](=O)[O-]` [Example 4, 6,7-dihydro-4H-isoxazolo[4,5-c]pyridine-3,5-dicarboxylic acid 5-[(4-methyl-3-nitro-phenyl) amide] 3-(phenethyl amide)] as the compound, how does the “BTX inhibition (rat) % inhibition” value read?
A: 80%

Q: For `O=C(c1noc2c1CN(S(=O)(=O)c1cccc3ccccc13)CC2)N1CCN(c2nccs2)CC1` [Example 142, (5-(naphthalen-1-ylsulfonyl)-4,5,6,7-tetrahydroisoxazolo[4,5-c]pyridin-3-yl)(4-(thiazol-2-yl)piperazin-1-yl)methanone], which “BTX inhibition (rat) % inhibition” value is on record?
A: 54%

Q: How did the “BTX inhibition (rat) % inhibition” value turn out when `O=C(c1noc2c1CN(S(=O)(=O)c1cc(Cl)ccc1Cl)CC2)N1CCN(c2ccccc2Cl)CC1` [Example 110, [4-(2-chlorophenyl)-piperazin-1-yl]-[5-(2,5-dichloro-benzenesulfonyl)-4,5,6,7-tetrahydro-isoxazolo[4,5-c]pyridin-3-yl]-methanone] was run?
A: 55%

Q: For `O=C(Nc1ccccc1)c1noc2c1CN(Cc1ccc3ccccc3c1Br)CC2` [Example 135, 5-(1-bromo-naphthalen-2-ylmethyl)-4,5,6,7-tetrahydro-isoxazolo[4,5-c]pyridine-3-carboxylic acid phenyl amide], which “BTX inhibition (rat) % inhibition” value is on record?
A: 61%

Q: How did the “BTX inhibition (rat) % inhibition” value turn out when `Cc1cc(C(=O)N2CCc3onc(C(=O)NCCN4CCCC4)c3C2)ccc1Br` [Example 102, 5-(4-bromo-3-methyl-benzoyl)-4,5,6,7-tetrahydro-isoxazolo[4,5-c]pyridine-3-carboxylic acid (2-pyrrolidin-1-yl-ethyl) amide] was run?
A: 73%

Q: `O=C(NCc1ccc(C(F)(F)F)c(F)c1)c1noc2c1CN(S(=O)(=O)c1ccccc1)CC2` [Example 113, 5-benzenesulfonyl-4,5,6,7-tetrahydro-isoxazolo[4,5-c]pyridine-3-carboxylic acid 3-fluoro-4-trifluoromethyl-benzyl amide] was tested. Which “BTX inhibition (rat) % inhibition” value did it give?
A: 60%

Q: How did the “BTX inhibition (rat) % inhibition” value turn out when `O=C(Nc1ccccc1)c1noc2c1CN(C(=O)Nc1ccc(OC(F)(F)F)cc1)CC2` [Example 3, 6,7-dihydro-4H-isoxazolo[4,5-c]pyridine-3,5-dicarboxylic acid 3-phenyl amide 5-[(4-trifluoromethoxy-phenyl) amide]] was run?
A: 73%
